# Reference: ChEMBL document CHEMBL1201862, “PubChem BioAssay data set” (2004)
# Active and inactive are the calls of the source.
# Columns and labels:
# [1] = biological target: T1, Carboxy-terminal domain RNA polymerase II polypeptide A small phosphatase 1 (Homo sapiens, UniProt Q9GZU7); assay: inhibitors of CTDSP1, concentration-response testing, biochemical assay, absorbance-based, actives from ultra-high-throughput screening (AID 540297); assay type: functional
# T1 sequence (Q9GZU7 whole entry): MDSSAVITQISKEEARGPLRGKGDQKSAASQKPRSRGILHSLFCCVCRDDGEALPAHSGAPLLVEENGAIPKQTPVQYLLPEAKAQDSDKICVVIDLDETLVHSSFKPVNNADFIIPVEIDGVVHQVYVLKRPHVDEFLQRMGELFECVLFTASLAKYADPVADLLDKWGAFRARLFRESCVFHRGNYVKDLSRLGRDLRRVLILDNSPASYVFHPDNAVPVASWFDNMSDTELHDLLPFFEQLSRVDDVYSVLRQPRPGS
# [2] = biological target: T2, Phosphomannomutase 2 (Homo sapiens, UniProt O15305); assay: Counter screen SAR assay for PMM2 inhibitors via a fluorescence intensity assay. [Related pubchem assays (depositor defined):AID1545, AID1574]
# T2 sequence (O15305 whole entry): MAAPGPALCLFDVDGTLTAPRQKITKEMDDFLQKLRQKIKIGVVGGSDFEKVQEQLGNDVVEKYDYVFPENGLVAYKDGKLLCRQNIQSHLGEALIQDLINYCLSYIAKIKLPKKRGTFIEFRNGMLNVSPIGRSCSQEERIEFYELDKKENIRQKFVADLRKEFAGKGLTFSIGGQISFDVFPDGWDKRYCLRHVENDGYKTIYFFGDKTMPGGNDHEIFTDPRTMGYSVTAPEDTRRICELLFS
# [3] = biological target: Phosphoethanolamine/phosphocholine phosphatase (Homo sapiens, UniProt Q8TCT1); assay: SAR assay for compounds that inhibit PHOSPHO1. [Related pubchem assays (depositor defined):AID1545, AID1565, AID1574]
# [4] = biological target: Eukaryotic translation initiation factor 4E (Mus musculus, UniProt P63073); assay: eIF4E–eIF4G protein interaction inhibitors, dose response, biochemical, TR-FRET (AID 855); assay type: functional;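 further: potency for disrupting eIF4E binding to eIF4GI seen as loss of FRET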
# [5] = biological target: Glucose-6-phosphate 1-dehydrogenase (Homo sapiens, UniProt P11413); assay: human G6PD enzyme inhibitors, dose response, selectivity assay for P. falciparum G6PD inhibitor project, biochemical, fluorescence (AID 504792); assay type: functional
# [6] = biological target: Large T antigen (Simian virus 40, UniProt P03070); assay type: functional, Betapolyomavirus macacae;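 further: Confirmatory-stage PubChem screen for compounds that inhibit SV40 T antigen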
# [7] = biological target: T3, Mannose-6-phosphate isomerase (Homo sapiens, UniProt P34949); assay: PMI enzyme inhibitors, confirmation, biochemical, fluorescence intensity (AID 1535)
# T3 sequence (P34949 whole entry): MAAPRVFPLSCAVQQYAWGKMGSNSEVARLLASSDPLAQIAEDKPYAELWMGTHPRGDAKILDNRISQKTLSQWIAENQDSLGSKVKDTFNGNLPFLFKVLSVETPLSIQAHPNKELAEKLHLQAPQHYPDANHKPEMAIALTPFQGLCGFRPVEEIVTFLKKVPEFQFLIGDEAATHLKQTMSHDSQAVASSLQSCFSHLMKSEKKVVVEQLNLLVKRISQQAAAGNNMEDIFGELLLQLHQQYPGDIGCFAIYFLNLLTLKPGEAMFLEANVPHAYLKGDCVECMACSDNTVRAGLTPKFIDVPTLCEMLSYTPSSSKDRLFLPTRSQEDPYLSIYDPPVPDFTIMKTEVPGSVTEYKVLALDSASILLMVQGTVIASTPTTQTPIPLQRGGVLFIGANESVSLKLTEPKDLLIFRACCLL
# [8] = biological target: Female germline-specific tumor suppressor gld-1 (Caenorhabditis elegans, UniProt Q17339); assay: inhibitors of GLD-1 binding to TGE RNA, dose response, biochemical, fluorescence polarization, C. elegans (AID 2802);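 further: fluorescence polarization of labeled TGE RNA bound by purified gld-1 protein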
# [9] = biological target: Protein Rev (Human immunodeficiency virus type 1 group M subtype B (isolate HXB2)(HIV-1), UniProt P04618); assay: inhibitors of Rev binding to RRE RNA, dose response, biochemical, fluorescence polarization, HIV-1 (AID 434976); parameters: species or system Human immunodeficiency virus 1
# [10] = biological target: DNA dC->dU-editing enzyme APOBEC-3G (Homo sapiens, UniProt Q9HC16); assay: Dose Response confirmation of small molecule APOBEC3G DNA Deaminase Inhibitors via a fluorescence-based single-stranded DNA deaminase assay. [Related pubchem assays (depositor defined):AID493012, AID493028]; assay type: functional
# [11] = biological target: DNA dC->dU-editing enzyme APOBEC-3A (Homo sapiens, UniProt P31941); assay: APOBEC3A DNA deaminase inhibitors, dose response, biochemical (AID 504722); assay type: functional
# [12] = biological target: T4, Alkaline phosphatase, tissue-nonspecific isozyme (Homo sapiens, UniProt P05186); assay: TNAP enzyme inhibition by screening hits, dose response, selectivity assay for mouse IAP inhibitor project, biochemical, human TNAP, uHTS hits (AID 488906); assay type: functional
# T4 sequence (P05186 whole entry): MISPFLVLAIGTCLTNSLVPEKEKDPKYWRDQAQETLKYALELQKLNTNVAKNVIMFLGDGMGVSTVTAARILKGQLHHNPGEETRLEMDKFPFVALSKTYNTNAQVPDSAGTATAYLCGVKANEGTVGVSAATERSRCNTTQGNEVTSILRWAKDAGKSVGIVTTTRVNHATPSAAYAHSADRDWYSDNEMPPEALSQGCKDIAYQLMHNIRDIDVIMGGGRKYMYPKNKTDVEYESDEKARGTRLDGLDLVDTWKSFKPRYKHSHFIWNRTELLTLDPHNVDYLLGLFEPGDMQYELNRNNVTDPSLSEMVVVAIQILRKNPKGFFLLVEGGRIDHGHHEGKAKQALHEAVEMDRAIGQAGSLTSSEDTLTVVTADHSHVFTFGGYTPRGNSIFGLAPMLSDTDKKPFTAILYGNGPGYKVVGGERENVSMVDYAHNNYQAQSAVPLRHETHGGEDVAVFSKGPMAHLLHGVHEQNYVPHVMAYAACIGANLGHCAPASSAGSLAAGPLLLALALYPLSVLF
# [13] = biological target: Intestinal-type alkaline phosphatase (Homo sapiens, UniProt P09923); assay: activation of human intestinal alkaline phosphatase – biochemical, dose response (AID 488873); assay type: functional
# [14] = biological target: T4, Alkaline phosphatase, tissue-nonspecific isozyme
# [15] = biological target: Intestinal-type alkaline phosphatase (Mus musculus, UniProt P24822); assay: PubChem AID 488785; assay type: functional
# [16] = inhibitors of intracellular T. cruzi replication, confirmation, NIH3T3 host cells, beta-gal luminescence (AID 2044); assay type: functional, cell-based;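 further: intracellular parasites grown in NIH/3T3 mouse fibroblasts as host cells; luminescent beta-galactosidase reporter signal from transgenic T. cruzi replicating inside host cells; inhibitors lower the luminescence signal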
# [17] = cytotoxicity toward NIH3T3 fibroblasts, dose response, counter-screen, cell-based, ATP luminescence, mouse fibroblasts (AID 2010); assay type: functional;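 further: cells exposed to compound for about 90 hours before reading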
# [18] = biological target: G-protein coupled receptor 55 (Homo sapiens, UniProt Q9Y2T6); assay: GPR55 antagonists blocking LPI-driven arrestin recruitment, primary screen, imaging, U2OS, beta-arrestin-GFP, LPI agonist (AID 2013); assay type: functional;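 further: antagonist potency measured as reduced agonist-driven arrestin aggregation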
# G-protein coupled receptor 55, sequence (Q9Y2T6 whole entry): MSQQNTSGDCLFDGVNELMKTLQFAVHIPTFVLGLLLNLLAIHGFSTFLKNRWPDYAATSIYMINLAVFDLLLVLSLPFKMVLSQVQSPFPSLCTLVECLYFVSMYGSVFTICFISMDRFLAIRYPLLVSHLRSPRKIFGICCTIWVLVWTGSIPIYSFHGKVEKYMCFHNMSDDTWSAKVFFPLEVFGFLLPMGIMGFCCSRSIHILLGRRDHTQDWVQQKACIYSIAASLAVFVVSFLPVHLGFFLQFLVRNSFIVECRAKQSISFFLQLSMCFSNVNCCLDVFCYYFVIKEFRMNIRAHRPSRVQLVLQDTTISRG
# DNA dC->dU-editing enzyme APOBEC-3A, sequence (P31941 whole entry): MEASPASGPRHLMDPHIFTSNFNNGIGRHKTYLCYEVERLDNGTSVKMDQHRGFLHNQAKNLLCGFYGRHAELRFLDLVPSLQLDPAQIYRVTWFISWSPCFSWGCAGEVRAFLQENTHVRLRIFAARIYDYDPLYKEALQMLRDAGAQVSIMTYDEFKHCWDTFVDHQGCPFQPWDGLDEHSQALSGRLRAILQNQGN
# Large T antigen, sequence (P03070 whole entry): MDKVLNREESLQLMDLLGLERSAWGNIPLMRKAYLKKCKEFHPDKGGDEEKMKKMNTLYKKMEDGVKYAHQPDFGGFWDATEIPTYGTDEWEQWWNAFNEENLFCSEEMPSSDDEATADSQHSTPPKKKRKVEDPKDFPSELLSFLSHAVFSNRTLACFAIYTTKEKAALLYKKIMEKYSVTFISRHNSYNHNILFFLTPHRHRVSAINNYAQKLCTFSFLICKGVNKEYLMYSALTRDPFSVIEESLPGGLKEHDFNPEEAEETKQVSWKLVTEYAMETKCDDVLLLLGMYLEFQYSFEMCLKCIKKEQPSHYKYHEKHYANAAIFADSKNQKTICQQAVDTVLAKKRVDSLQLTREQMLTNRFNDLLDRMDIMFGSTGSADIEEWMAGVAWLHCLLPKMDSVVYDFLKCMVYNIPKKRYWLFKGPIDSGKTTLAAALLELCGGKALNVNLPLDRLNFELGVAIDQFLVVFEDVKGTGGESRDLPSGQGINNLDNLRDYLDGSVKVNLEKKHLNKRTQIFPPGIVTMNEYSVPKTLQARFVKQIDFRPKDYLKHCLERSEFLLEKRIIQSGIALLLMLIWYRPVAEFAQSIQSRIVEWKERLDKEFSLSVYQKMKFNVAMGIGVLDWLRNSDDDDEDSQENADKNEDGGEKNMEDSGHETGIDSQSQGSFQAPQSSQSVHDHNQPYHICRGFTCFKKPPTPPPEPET
# Intestinal-type alkaline phosphatase (Homo sapiens, UniProt P09923), sequence (P09923 whole entry): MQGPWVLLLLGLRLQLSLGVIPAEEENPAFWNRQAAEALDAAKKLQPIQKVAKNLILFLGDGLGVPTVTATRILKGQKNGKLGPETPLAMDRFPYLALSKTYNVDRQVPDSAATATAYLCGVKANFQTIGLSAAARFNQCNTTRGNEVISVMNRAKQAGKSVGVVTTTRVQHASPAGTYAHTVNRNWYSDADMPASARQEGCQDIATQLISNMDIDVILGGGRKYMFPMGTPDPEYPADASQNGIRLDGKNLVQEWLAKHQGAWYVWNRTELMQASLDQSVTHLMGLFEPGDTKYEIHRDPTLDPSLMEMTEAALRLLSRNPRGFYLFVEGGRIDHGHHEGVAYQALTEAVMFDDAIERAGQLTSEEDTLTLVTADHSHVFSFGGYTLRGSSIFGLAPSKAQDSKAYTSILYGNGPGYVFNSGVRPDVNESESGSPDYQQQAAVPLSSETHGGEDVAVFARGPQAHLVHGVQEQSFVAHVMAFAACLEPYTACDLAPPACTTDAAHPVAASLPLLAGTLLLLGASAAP
# DNA dC->dU-editing enzyme APOBEC-3G, sequence (Q9HC16 whole entry): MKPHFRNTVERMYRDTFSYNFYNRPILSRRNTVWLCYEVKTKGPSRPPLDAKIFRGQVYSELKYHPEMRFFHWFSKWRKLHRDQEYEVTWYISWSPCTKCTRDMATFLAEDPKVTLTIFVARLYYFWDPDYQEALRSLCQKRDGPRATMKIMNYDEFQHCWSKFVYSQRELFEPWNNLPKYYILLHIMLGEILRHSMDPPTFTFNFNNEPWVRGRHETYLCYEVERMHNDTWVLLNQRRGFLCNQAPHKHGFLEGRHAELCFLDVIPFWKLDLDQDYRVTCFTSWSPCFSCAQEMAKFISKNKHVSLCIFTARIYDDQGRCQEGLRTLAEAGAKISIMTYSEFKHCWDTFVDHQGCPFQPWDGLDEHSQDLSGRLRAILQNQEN
# Protein Rev, sequence (P04618 whole entry): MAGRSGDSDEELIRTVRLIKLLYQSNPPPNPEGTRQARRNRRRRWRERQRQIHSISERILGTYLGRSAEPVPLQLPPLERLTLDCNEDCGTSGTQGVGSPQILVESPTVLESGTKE
# Phosphoethanolamine/phosphocholine phosphatase, sequence (Q8TCT1 whole entry): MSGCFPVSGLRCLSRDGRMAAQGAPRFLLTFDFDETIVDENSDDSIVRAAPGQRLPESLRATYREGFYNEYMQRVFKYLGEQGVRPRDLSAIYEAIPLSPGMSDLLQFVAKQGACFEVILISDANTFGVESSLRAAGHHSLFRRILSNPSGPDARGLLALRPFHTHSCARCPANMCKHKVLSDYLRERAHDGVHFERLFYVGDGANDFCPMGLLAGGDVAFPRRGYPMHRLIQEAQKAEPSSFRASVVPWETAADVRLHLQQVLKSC
# Female germline-specific tumor suppressor gld-1, sequence (Q17339 whole entry): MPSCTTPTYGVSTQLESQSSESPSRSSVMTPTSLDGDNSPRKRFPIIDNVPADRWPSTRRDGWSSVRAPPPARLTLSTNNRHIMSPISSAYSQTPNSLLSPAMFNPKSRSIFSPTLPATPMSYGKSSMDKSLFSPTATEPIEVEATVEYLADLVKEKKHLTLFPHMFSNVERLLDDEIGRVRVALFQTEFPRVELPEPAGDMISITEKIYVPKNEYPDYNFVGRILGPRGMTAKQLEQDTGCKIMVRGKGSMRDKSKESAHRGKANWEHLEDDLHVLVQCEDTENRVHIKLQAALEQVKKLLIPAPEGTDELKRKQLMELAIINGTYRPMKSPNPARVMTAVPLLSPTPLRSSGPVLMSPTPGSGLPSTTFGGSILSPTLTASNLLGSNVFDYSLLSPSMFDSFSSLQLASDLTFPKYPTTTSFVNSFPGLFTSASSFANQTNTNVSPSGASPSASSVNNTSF
# Glucose-6-phosphate 1-dehydrogenase, sequence (P11413 whole entry): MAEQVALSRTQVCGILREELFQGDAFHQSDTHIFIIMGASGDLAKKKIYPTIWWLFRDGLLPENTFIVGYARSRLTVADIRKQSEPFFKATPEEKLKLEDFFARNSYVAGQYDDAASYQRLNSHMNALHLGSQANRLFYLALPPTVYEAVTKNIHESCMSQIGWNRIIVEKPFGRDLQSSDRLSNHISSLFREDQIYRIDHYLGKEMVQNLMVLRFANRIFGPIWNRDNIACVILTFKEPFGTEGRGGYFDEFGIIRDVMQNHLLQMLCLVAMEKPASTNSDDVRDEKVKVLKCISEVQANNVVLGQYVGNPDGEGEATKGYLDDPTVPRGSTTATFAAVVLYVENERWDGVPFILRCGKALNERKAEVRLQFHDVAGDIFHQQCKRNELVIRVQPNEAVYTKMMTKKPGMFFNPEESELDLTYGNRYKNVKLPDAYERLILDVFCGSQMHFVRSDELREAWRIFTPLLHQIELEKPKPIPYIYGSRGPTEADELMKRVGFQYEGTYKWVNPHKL
# Intestinal-type alkaline phosphatase (Mus musculus, UniProt P24822), sequence (P24822 whole entry): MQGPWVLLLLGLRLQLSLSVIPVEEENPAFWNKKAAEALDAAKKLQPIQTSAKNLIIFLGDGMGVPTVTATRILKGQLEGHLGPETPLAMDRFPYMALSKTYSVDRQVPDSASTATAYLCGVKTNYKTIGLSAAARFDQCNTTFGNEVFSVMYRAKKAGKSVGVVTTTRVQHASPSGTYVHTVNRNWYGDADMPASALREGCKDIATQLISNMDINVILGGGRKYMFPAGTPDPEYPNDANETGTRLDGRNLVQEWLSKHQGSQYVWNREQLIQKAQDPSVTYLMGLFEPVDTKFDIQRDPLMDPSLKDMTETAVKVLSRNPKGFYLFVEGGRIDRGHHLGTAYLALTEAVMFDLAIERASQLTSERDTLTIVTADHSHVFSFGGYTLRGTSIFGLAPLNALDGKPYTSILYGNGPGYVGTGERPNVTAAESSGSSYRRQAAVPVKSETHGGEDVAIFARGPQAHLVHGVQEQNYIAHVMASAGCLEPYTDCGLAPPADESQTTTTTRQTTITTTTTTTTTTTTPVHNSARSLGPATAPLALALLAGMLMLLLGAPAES
# Eukaryotic translation initiation factor 4E, sequence (P63073 whole entry): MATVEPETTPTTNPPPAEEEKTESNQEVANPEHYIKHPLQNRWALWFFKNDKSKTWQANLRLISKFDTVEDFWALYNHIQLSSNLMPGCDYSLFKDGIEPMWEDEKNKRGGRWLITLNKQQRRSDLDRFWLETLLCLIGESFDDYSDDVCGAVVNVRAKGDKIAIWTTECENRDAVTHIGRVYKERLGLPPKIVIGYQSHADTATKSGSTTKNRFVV
smiles,measurement,setting,value
O=c1c2ccccc2sn1-c1cc(S(=O)(=O)N2CCOCC2)ccc1N1CCCC1,IC50,[1],11 µM (active)
same,IC50,[2],29.8 µM (active)
same,IC50,[3],10.7 µM (inactive)
same,IC50,[4],34.5 µM (inactive)
same,IC50,[5],14.3 µM (active)
same,IC50,[6],11.7 µM (active)
same,IC50,[7],7.51 µM (active)
CC(C)CCN(C(=O)CCCSc1nc2ccccc2[nH]1)c1c(N)n(Cc2ccccc2)c(=O)[nH]c1=O,IC50,[8],3.12 µM (active)
same,IC50,[9],> 8.38 µM (active)
COc1ccc(OCc2nnc(S)n2Cc2ccco2)cc1,IC50,[10],3.88 µM (active)
same,IC50,[11],> 100 µM (inactive)
CCOC(=O)c1ccc(N2CCN(c3ccccc3F)CC2)c(NC(=O)Nc2cccc(OC)c2)c1,IC50,[12],> 100 µM (inactive)
same,EC50,[13],> 100 µM (inactive)
same,EC50,[14],> 100 µM (not active)
same,IC50,[15],6.54 µM (active)
same,EC50,[16],1.39 µM (active)
same,EC50,[17],> 60 µM (inconclusive)
CC(=O)Oc1ccc2ccccc2c1C(NC(=O)Cc1ccccc1)c1ccccc1 (stereo not drawn),IC50,[18],1.27 µM (active)
